# Experimental data as given in PMC10895676, “Antiviral Activity of Lipophilic Nucleoside Tetraphosphate Compounds” (Journal of Medicinal Chemistry, 2024).
# Like-named read-outs stand apart in the source and are kept apart here.
# Key:
# [1] = Cytotoxicity, inhibition of CEM cell proliferation; type: cell-based; details: human, CEM cells (CD4+ T-cells), read-out: toxicity CC50
# HIV-1 (HE) = test: Anti-HIV replication assay, HIV-1 (HE) in wild-type CEM/0 cells; type: cell-based; details: Human immunodeficiency virus 1, CCRF-CEM, read-out: HIV-1 (HE) EC50
# How it was run: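 Wild-type CEM/0 CD4+ T-cells (~3 × 10^5 cells/mL) infected with 100 CCID50/mL HIV-1(HE) alongside compound dilutions, incubated 4–5 days at 37 °C. Syncytia (giant cell) formation scored microscopically; EC50 is the concentration inhibiting HIV-induced giant cell formation by 50%.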
# [2] = wild-type CEM/0 cells, mean ± SD, n = 2–3
SMILES,CC50 [1],EC50 (HIV-1 (HE); [2]),EC50 (HIV-1 (HE))
"CCCCCCCCCCCCCCCCCCOP(=O)(OCCCC)OP(=O)(O)OP(=O)(O)OP(=O)(O)OC[C@@H]1C=C[C@H](n2cc(C)c(=O)[nH]c2=O)O1 (stereo partly shown) [4d, δ-(Alkyl-C4; alkyl-C18)-d4T4P]",43.9 µM,110 ± 10 nM,
"CCCCCCCCCCCCCCCCCCP(=O)(OCCCC)OP(=O)(O)OP(=O)(O)OP(=O)(O)OC[C@@H]1C=C[C@H](n2cc(C)c(=O)[nH]c2=O)O1 (stereo partly shown) [5a, δ-(Alkyl-C4)-δ-C-(alkyl-C18)-d4T4P]",44.6 µM,,330 ± 90 nM
"CCCCCCCCCCCCCCCCCCOP(=O)(O)OP(=O)(O)OP(=O)(O)OP(=O)(O)OC[C@@H]1C=C[C@H](n2cc(C)c(=O)[nH]c2=O)O1 [compound 20, δ-(Alkyl-C18)-d4T4P]",> 100 µM,710 ± 260 nM,
"CCCCCCCCCCCCCCCCCCP(=O)(O)OP(=O)(O)OP(=O)(O)OP(=O)(O)OC[C@@H]1C=C[C@H](n2cc(C)c(=O)[nH]c2=O)O1 [compound 24, δ-C-(Alkyl-C18)-d4T4P]",23.2 µM,430 ± 370 nM,
"Cc1cn([C@H]2C=C[C@@H](COP(=O)(O)OP(=O)(O)OP(=O)(O)OP(=O)(O)O)O2)c(=O)[nH]c1=O [d4T4P, 2′,3′-didehydro-2′,3′-dideoxythymidine-5′-tetraphosphate]",> 100 µM,420 ± 160 nM,
